Measurements taken from article PMC7679302 (Environmental Science and Pollution Research International, 2020).
Marks after values point to notes of the source that are not given here.

Tests used:
[1] = Acute 48 h aqueous toxicity test with glochidia (viability); format: in vivo, Lampsilis siliquoidea; details: Lampsilis siliquoidea, in vivo, other: aqueous (water-only) exposure, 48-h aqueous exposure, n = 4, read-out: Viability (mean, % (standard deviation))
From the text: (§1) Aqueous acute toxicity tests were based on the American Society for Testing and Materials (ASTM [2013]) protocols for conducting toxicity tests with early life stages of freshwater mussels. Gravid female L. siliquoidea were collected from an established reference site in the Maitland River (ON) and kept in ECCC’s Aquatic Life Research Facility (Canada Centre for Inland Waters, Burlington, ON). Glochidia were removed from gravid females and their viability (i.e., ability to close their valves) was assessed. Glochidia from a minimum of three gravid mussels whose glochidia exceeded 90% viability were pooled and exposed to a geometric series of nominal concentrations (0, 0.0025, 0.025, 0.25, 2.5, 25 mg/L) of either FIN or MGA plus a solvent control. Tests were conducted in 250-mL glass beakers (unaerated and unfed) with culture water. After 24 and 48 h of exposure, glochidia viability was assessed in a minimum of 100 glochidia per replicate (four replicates). Water samples were collected at the beginning and end of the tests, and frozen pending chemical analysis.

[2] = test system: Lampsilis siliquoidea glochidia; experiment: as above; format: in vivo; details: for Viability (mean, % (standard deviation)): 48-h aqueous exposure, n = 4
From the text: as §1

amphipod Hyalella azteca = experiment: Chronic 42-day sediment test with amphipods (survival, growth, reproduction, sex ratio)
Procedure: Dechlorinated municipal tap water was used for cultures and toxicity tests. Both cultures and toxicity tests were held at 25 °C with a photoperiod of 16 h light:8 h dark, and amphipods were fed finely ground Tetra-Min fish food flakes (Tetra GMBH, Melle, Germany). Juvenile amphipods were removed weekly from breeding containers and used in toxicity tests.
Two tests were conducted for each compound. Amphipods were fed ground Tetra-Min twice per week during weeks 1 and 2, three times during week 3, and 5 mg three times per week during weeks 4 to 6. Surviving adults were counted, weighed as a group, and examined under a dissecting microscope to identify males (enlarged second gnathopods) and females, and the number of juveniles was recorded.

[3] = test system: juvenile mussels L. siliquoidea; experiment: 21 d range-finding sediment test, juvenile mussels; format: in vivo
Procedure: (§2) Range-finding tests of 21 d were completed with juvenile mussels, amphipods and mayflies to assist with the selection of the concentrations to be used in final testing. Nominal concentrations in range-finding tests were 0.1, 1, 10, 100, and 1000 mg/kg, based on dry weight of sediment. Range-finding test conditions were identical to those described in the manuscript for chronic sediment tests with the exception of test duration.
After 21 d, mussels were recovered and transferred to Petri dishes filled with clean sand and housed in large trays of aerated culture water to assess burial ability.

amphipods H. azteca = experiment: 21 d range-finding sediment test, amphipods; format: in vivo, Hyalella azteca; details: n = 3
Procedure: as §2
Amphipods were fed 2.5 mg Tetra-min twice per week during weeks one and two, and three times during week three. At the end of the test, amphipods were removed and the survivors were counted and weighed.

mayflies Hexagenia spp. = experiment: 21 d range-finding sediment test, mayflies; format: in vivo; details: n = 3
Procedure: as §2
At the end of the test, survival and wet weight of mayflies in each replicate were recorded.

mayfly Hexagenia spp. [4] = details: Hexagenia spp. (mixture of H. rigida and H. limbata), in vivo, 42 days, pH 8.3
Procedure: (§3) Nominal concentrations were 10, 30, 100, 300, and 1000 mg/kg for juvenile freshwater mussels and 3, 10, 30, 100, and 300 mg/kg for amphipods and mayflies, and were based on the results of range-finding tests (detailed in Supplementary Materials). […] For each PPCP, the concentration of solvent used was consistent across treatments.
(§4) The sediments were mixed for 24 h, left open in a fume hood for 3–5 days for the acetone to evaporate, and then stored at 4 °C until use. […] All beakers were aerated for 1 week under testing conditions prior to the addition of organisms, and throughout the tests. Duration of toxicity tests varied depending on the species and endpoint of interest (see below). Water quality parameters were collected for each test (Table S1).
(§5) Briefly, eggs of Hexagenia spp. […] Prior to testing, eggs were hatched and nymphs were grown in aerated 20-L aquaria containing culture sediment (depth: 2.5 cm) and culture water (depth: 10 cm) for 6 to 7 weeks.
(§6) Ten mayflies (5–8 mg wet weight) were added to each beaker (three replicates for each control and PPCP concentration). Two tests were conducted for each compound. […] At the end of the test, mayflies were removed and surviving animals from each of the three replicates were counted and weighed.

[5] = test system: goldfish (Carassius auratus); parameters: method as in Upjohn Company [1996]; details: 1 mg/L MGA for 21 days; ref Upjohn Company [1996]; cited from earlier work
[6] = test system: African clawed frog (Xenopus laevis) larvae; parameters: method as in Finch et al. [2013]; details: chronic exposure to 100 ng/L MGA; ref Finch et al. [2013]; cited from earlier work
[7] = natural and simulated sunlight; ref Qu et al. [2012]; cited from earlier work
mayfly Hexagenia spp. [8] = experiment: Chronic 42-day sediment test with mayflies (survival, growth); details: measured, n = 6
Procedure: as §3, §4, §5, §6

[9] = Hyalella azteca, in vivo, 42 days, pH 8.3
[10] = 0.1 mg/kg dry weight nominal, n = 3
[11] = 1 mg/kg dry weight nominal, n = 3
[12] = 10 mg/kg dry weight nominal, n = 3
[13] = 100 mg/kg dry weight nominal, n = 3

C=C1C[C@H]2[C@@H]3C=C(C)C4=CC(=O)CC[C@]4(C)[C@H]3CC[C@]2(C)[C@@]1(OC(C)=O)C(C)=O [Melengestrol acetate]
viability at 48 h, 0.005 mg/L ([1]; 0.005 mg/L mean measured): 86%
viability at 48 h, 0.05 mg/L ([1]; 0.05 mg/L mean measured): 82%
viability at 48 h, 0.3 mg/L ([1]; 0.3 mg/L mean measured): 85%
viability at 48 h, 1.9 mg/L ([1]; 1.9 mg/L mean measured): 82%
viability at 48 h, 4 mg/L ([1]; 4 mg/L mean measured): 70%
Decrease in viability ([2]; 4 mg/L MGA, water-only): 20%
Viability (mean, % (standard deviation)) ([2]; 0.05 mg/L mean measured): 82 (2.1)^b %
Viability (mean, % (standard deviation)) ([2]; 1.9 mg/L mean measured): 82 (3.3)^b %
NOEC ([2]; Lampsilis siliquoidea, in vivo, 48 h): 1.9 mg/L^b
ChV (geometric mean of NOEC and LOEC) ([2]; viability, acute 48 h): 2.8 mg/L
ChV, sediment (amphipod Hyalella azteca; [9]): 53 mg/kg
LOEC, overlying water (amphipod Hyalella azteca; [9]): 0.5 mg/L
LOEC, sediment (amphipod Hyalella azteca; [9]): 76 mg/kg
NOEC, overlying water (amphipod Hyalella azteca; [9]): 0.25 mg/L
Females (percent of surviving amphipods), mean (SEM) (amphipod Hyalella azteca; melengestrol acetate 76 mg/kg dw sediment (0.5 mg/L water), measured, 42-day, n = 10): 60 (4.5) %
NOEC, sediment (amphipod Hyalella azteca; survival, growth, 42-day, dry weight sediment, measured): 37 mg/kg
Burial (%), mean (SEM) [3, 10]: 85 (4.8) %
Survival (%), mean (SEM) [3, 10]: 93 (3.3) %
Burial (%), mean (SEM) [3, 11]: 97 (7.0) %
Survival (%), mean (SEM) [3, 11]: 97 (3.3) %
Burial (%), mean (SEM) [3, 12]: 90(5.8) %
Survival (%), mean (SEM) [3, 12]: 97 (3.3) %
Burial (%), mean (SEM) [3, 13]: 90 (0.0) %
Survival (%), mean (SEM) [3, 13]: 100 (0.0) %
Burial (%), mean (SEM) ([3]; 1000 mg/kg dry weight nominal, n = 3): 68 (5.8) %
Survival (%), mean (SEM) ([3]; 1000 mg/kg dry weight nominal, n = 3, 1000 mg/kg): 77 (8.8) %
Growth, mean (SEM) (amphipods H. azteca; 0.1 mg/kg dry weight nominal): 1.0 (0.09) mg wet weight
Survival (%), mean (SEM) (amphipods H. azteca; 0.1 mg/kg dry weight nominal): 100 (3.8) %
Growth, mean (SEM) (amphipods H. azteca; 1 mg/kg dry weight nominal): 1.0 (0.07) mg wet weight
Survival (%), mean (SEM) (amphipods H. azteca; 1 mg/kg dry weight nominal): 100 (0.0) %
Growth, mean (SEM) (amphipods H. azteca; 10 mg/kg dry weight nominal): 1.1 (0.10) mg wet weight
Survival (%), mean (SEM) (amphipods H. azteca; 10 mg/kg dry weight nominal): 95 (2.2) %
Growth, mean (SEM) (amphipods H. azteca; 100 mg/kg dry weight nominal): 0.7 (0.15) mg wet weight
Survival (%), mean (SEM) (amphipods H. azteca; 100 mg/kg dry weight nominal): 95 (2.2) %
Survival (%), mean (SEM) (amphipods H. azteca; 1000 mg/kg dry weight nominal): 0^a (0.0) %
Growth, mean (SEM) (mayflies Hexagenia spp.; 0.1 mg/kg dry weight nominal): 33 (0.2) mg wet weight
Survival (%), mean (SEM) (mayflies Hexagenia spp.; 0.1 mg/kg dry weight nominal): 100 (0.0) %
Growth, mean (SEM) (mayflies Hexagenia spp.; 1 mg/kg dry weight nominal): 30 (0.9) mg wet weight
Survival (%), mean (SEM) (mayflies Hexagenia spp.; 1 mg/kg dry weight nominal): 97 (3.3) %
Growth, mean (SEM) (mayflies Hexagenia spp.; 10 mg/kg dry weight nominal): 31 (1.2) mg wet weight
Survival (%), mean (SEM) (mayflies Hexagenia spp.; 10 mg/kg dry weight nominal): 100 (0.0) %
Growth, mean (SEM) (mayflies Hexagenia spp.; 100 mg/kg dry weight nominal): 20^a (0.7) mg wet weight
Survival (%), mean (SEM) (mayflies Hexagenia spp.; 100 mg/kg dry weight nominal): 100 (0.0) %
Growth, mean (SEM) (mayflies Hexagenia spp.; 1000 mg/kg dry weight nominal): 7.4^a (0.24) mg wet weight
Survival (%), mean (SEM) (mayflies Hexagenia spp.; 1000 mg/kg dry weight nominal): 37^a (8.8) %
ChV, overlying water (mayfly Hexagenia spp. [4]): 0.1 mg/L
ChV, sediment (mayfly Hexagenia spp. [4]): 21 mg/kg
LOEC, overlying water (mayfly Hexagenia spp. [4]): 0.25 mg/L
LOEC, sediment (mayfly Hexagenia spp. [4]): 37 mg/kg
NOEC, overlying water (mayfly Hexagenia spp. [4]): 0.04 mg/L
NOEC, sediment (mayfly Hexagenia spp. [4]): 12 mg/kg
Toxicity [5]: No toxicity was observed
Larval size (length and weight) vs controls [6]: significantly smaller
Mortality or developmental effects [6]: no mortality or developmental effects were observed
Direct photolysis half-life [7]: approximately 45 min
Survival (percent of initial animals added), mean (SEM) (mayfly Hexagenia spp. [8]; melengestrol acetate 1 mg/kg dw sediment (0.002 mg/L water)): 95 (2.2) %
Survival (percent of initial animals added), mean (SEM) (mayfly Hexagenia spp. [8]; melengestrol acetate 12 mg/kg dw sediment (0.04 mg/L water)): 90 (2.6) %
Survival (percent of initial animals added), mean (SEM) (mayfly Hexagenia spp. [8]; melengestrol acetate 37 mg/kg dw sediment (0.25 mg/L water)): 93 (2.1) %
Survival (percent of initial animals added), mean (SEM) (mayfly Hexagenia spp. [8]; melengestrol acetate 76 mg/kg dw sediment (0.5 mg/L water)): 92 (4.0) %
